# Entries after “also recorded” stand apart in the source; their conditions may differ.
# Legend:
# [1] = system: 3T3-LI mature adipocytes; test: Oil Red O staining of lipid accumulation in adipocytes; assay type: cell-based, murine; details: for number and size / morphology of lipid droplets vs. non-treated control: Oil Red O micrographs, peptides at 100 μM, Day 21, three times per week for three weeks; for reduction of lipid accumulation / lipid contents (in words): murine-based in vitro systems, mature adipocytes; for decrease in degree of lipid accumulation: quantitative Oil Red O analysis, Day 21
# Description: FIG. 2A-G: Representative photomicrographs showing Oil Red O-stained mature adipocytes treated with peptides at 100 μM (Day 21). H: Quantitative analysis of the lipids accumulated in the adipocytes (Day 21). Control absorbance: 0.526 (Red line). I: Relative cell counts on day 21.
# The effects of the minimal short peptides in blocking lipid accumulation in adipocytes were compared with their parent full-length peptide. After generating five different 3 amino acid fragments (KGG, GGR, GRA, RAK, and AKD) from the original ATS peptide (KGGRAKD (SEQ ID NO:1)), each peptide was administered to 3T3-LI pre-adipocytes in five varying concentrations. Peptides were treated to the adipocytes three times per week for three weeks. Oil Red O staining was utilized to assess the lipid contents in mature adipocytes in culture. The morphological characteristics of 3T3-LI mature adipocytes were observed by microscopy. […] Furthermore, the lipids were quantitatively analyzed. […] At the end point, the cell number was almost the same across the treatment groups, meaning that the reduction in lipid accumulation is not a consequence of toxicity of the peptides (FIG. 2I).
# The number of viable cells is counted prior to Oil Red O staining using Cell Counting Kit 8 (Dojindo). This cell viability study allows one to determine potential toxicities of the peptides and compensate for cell number variation-causing artifacts. Oil Red O is dissolved in isopropanol at […] to create a working solution. 12 ml of Oil Red O working solution is mixed with 8 ml dH2O and incubated for 10 minutes. This solution is then filtered using a 0.2 μm syringe filter. Adipocytes seeded on 96-well plates are washed with PBS twice. 10% formaldehyde is added for initial fixation and the plates are incubated for at least 30 minutes. The formaldehyde is removed and the cells are once again washed twice, this time with dH2O. 60% isopropanol is added to each well. The plates are incubated for 5 minutes. The isopropanol is removed from the wells and replaced with Oil Red O working solution. The plates are incubated for an additional 10 minutes. The Oil Red O solution is removed and washed four times with dH2O. Lastly, digital micrographs of the lipid droplets in adipocytes are taken using a light microscope. After the staining protocol, all plates are washed three times with 60% isopropanol. Each time, 5 minutes of gentle rocking was used. The Oil Red O is extracted with 100% isopropanol with gentle rocking for 5 minutes. 200 μl isopropanol per well is used as a background to measure absorbance at 492 nm using a BioTek microplate reader.
# [2] = molecular target: T1, prohibitin (Mus musculus, UniProt P67778); test: ATS/prohibitin binding by ATS magnetic bead immunoprecipitation and western blot; details: fractionated proteins from adipocytes incubated with ATS magnetic beads, western blot
# T1 construct: Fractionated proteins isolated from adipocytes were incubated with the ATS magnetic beads; endogenous in cells; probably 3T3-L1
# T1 sequence (P67778 2-272 limits assumed): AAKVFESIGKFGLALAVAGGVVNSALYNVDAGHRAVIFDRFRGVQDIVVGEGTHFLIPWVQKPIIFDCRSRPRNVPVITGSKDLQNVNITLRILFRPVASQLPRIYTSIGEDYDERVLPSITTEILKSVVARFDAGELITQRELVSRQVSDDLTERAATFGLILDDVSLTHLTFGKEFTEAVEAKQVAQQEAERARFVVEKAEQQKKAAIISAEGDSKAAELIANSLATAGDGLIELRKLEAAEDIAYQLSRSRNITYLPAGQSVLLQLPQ
# From the text: FIG. 1A: ATS/prohibitin binding determined by immunoprecipitation and western blot. FIG. 1B: Location and degree of prohibitin expression in pre- or mature adipocytes. PM, plasma membrane; Cyt, Cytoplasm. C: Confocal micrographs showing the location of prohibitin in mature- or pre-adipocytes.
# It was confirmed that prohibitin shifts its location to the cell membrane as adipogenesis progresses and ATS binds to prohibition. The ATS/prohibitin binding was verified in pre- or mature adipocytes (Won, Y. W. et al. Nat Mater 13, 1157-1164, (2014)). Fractionated proteins isolated from adipocytes were incubated with the ATS magnetic beads and the protein captured by ATS was identified by western blotting. […] Prohibitin is observed in several intracellular locations at varying expression levels depending on the degree of adipogenesis (Wang, P. et al. Cell Mol Life Sci 61, 2405-2417, (2004); Patel, N. et al. Proceedings of the National Academy of Sciences of the United States of America 107, 2503-2508, (2010)). The degree and location of prohibitin expression in pre- or mature adipocytes was determined. […] Confocal microscopy also verified the prohibitin expression on the cell membrane of mature adipocytes (FIG. 1C). High-level prohibitin expression on the cell membrane of mature adipocytes is important to the ATS/prohibitin interaction.
# [3] = system: DIO mice, obesity model (OM); test: Body weight in mice that had already developed obesity (obesity model, OM); assay type: in vivo; details: OM (post-obese) mice
# Description: (§1) FIG. 5A-F: IP Post-obese Body Weight. Relative body weight measurements for IP injected post-obese mice. G-H: Body weight change. Changes in body weight compared using HFD control group as baseline value. A1-F1: GTT. Blood glucose levels of peptide groups at endpoint, post-glucose injection (after 16 h fasting). A2-F2: ITT. Blood glucose levels of peptide groups at endpoint, post-insulin injection (after 6 h fasting).
# as §1, with “6A-F: SC” for “5A-F: IP”, “SC” for “IP”, “A1-D1,F1:” for “A1-F1:”, “A2-D2,F2:” for “A2-F2:”
# (§2) FIG. 8A-F: Oral/Feeding Post-obese Body Weight. Relative body weight measurements for orally administered post-obese mice. A1-F1: GTT. Blood glucose levels at endpoint, post-glucose injection (after 16 h fasting). A2-F2: ITT. Blood glucose levels at endpoint, post-insulin injection (after 6 h fasting).
# (§3) In the first phase, peptides were tested on pre-obese mice that were being fed high fat diet (HFD) to induce obesity (obesity progression model, OPM). In the second phase, these peptides were given to mice that had already developed obesity (obesity model, OM). […] As the activity of these three peptides varies depending on the injection route and the disease status, all three peptides, GGR, RAK, and AKD, were tested by oral administration.
# The second phase signified the post-obesity stage, where the same methods from phase 1 were used on OM mice.
# [4] = system: DIO mice, obesity progression model (OPM); test: Body weight in pre-obese mice fed high fat diet (obesity progression model, OPM); assay type: in vivo; details: for anti-obesity efficacy (body weight): oral administration
# Description: as §1, with “3A-H:” for “5A-F:”, “Preobese” for “Post-obese”, “pre-obese” for “post-obese”, “I-J:” for “G-H:”, “value” for “value.”
# as §1, with “4A-F: SC Pre-obese” for “5A-F: IP Post-obese”, “SC” for “IP”, “pre-obese” for “post-obese”
# as §2, with “7A-F:” for “8A-F:”, “Pre-obese” for “Post-obese”, “pre-obese” for “post-obese”
# Prior to oral administration, peptides were administered to DIO mice via intraperitoneal (IP) and subcutaneous (SC) injections. This study was divided into two phases:
# as §3
# Prior to oral administration, GGR, RAK, AKD, full-length ATS, and scrambled RKG peptides were administered to OPM mice via IP and SC injections to further screen an ideal peptide composition. PBS was included as a vehicle group. GGR, RAK, and AKD peptides were discovered to impede body weight gain in OPM mice. GGR and RAK were effective when given IP injections and AKD was effective by SC injections (FIGS. 3, 4).
# [5] = system: epididymal fat tissues of DIO mice; test: Histological analysis of fat pads (adipocyte number and size); assay type: in vivo
# Description: FIG. 9. Histological analysis fat pads. An automated system detected and counted adipocytes (yellow line). Adipocyte number and size: average of 3 hpf images from 2 mice (total 6 images/group).
# GGR, RAK, and AKD peptides were tested in OPM and OM mice by oral administration. […] In obesity progression, adipocytes increase in both number and size due to escalating lipid accumulation (Parlee, S. D., et al., Methods Enzymol 537, 93-122, (2014)). Using the methods described above, abdominal fat pads of GGR, RAK, AKD, or PBS-treated DIO mice were histologically analyzed. Epididymal fat tissues were harvested from two mice per experimental group. All samples were fixed in 4% paraformaldehyde, H&E-stained, and imaged. At a 10× magnification, adipocyte cell counting was performed on the digital slide images using an automated adipocyte counting macro with the ImageJ software. A default thresholding method was used and [cell] sizing boundaries of 40-40,000 were set. Limitations of the segmentation tool led to some erroneous selections or regions of interest (ROI), which were manually corrected by adding or erasing lines. The number of cells per representative field were then determined using the ROI manager in ImageJ. Two or three high power fields (hpf) per tissue and two tissue samples per group were analyzed to reduce variability. Average cell count for each group was calculated accordingly. Areas of all adipocytes of interest were measured using the ROI measurement tool (ImageJ) and average area per cell was calculated accordingly.
# The primary function of adipocytes is to store energy in the form of lipids. The volume of lipid stored in an adipocyte cell increases as the third power of the diameter. Because mature adipocytes are composed of large lipid droplets that are surrounded by very thin cytoplasmic layers, the increase in volume of an adipocyte cell likely indicates increased lipid storage. Thus, smaller adipocyte size/area translates to reduced lipid accumulation.
Substance,number and size / morphology of lipid droplets vs. non-treated control [1],prevention of body weight gain ([3]; IP injections),prevention of body weight gain ([3]; SC injections),prevention of body weight gain ([4]; IP injections),reduction of lipid accumulation / lipid contents (in words) [1],decrease in degree of lipid accumulation [1],other results
KGG,moderate differences in the morphology of lipid droplets,,,,,,
"KGGRAKD (SEQ ID NO:1) [ATS, parent full-length peptide, reference compound]",smaller than those in the non-treated control,,,,,,ATS/prohibitin binding [2]: specifically binds to prohibitin
GRA,moderate differences in the morphology of lipid droplets,,,,,,
RKG [reference compound],,did not show meaningful efficacy over the vehicle group; also recorded: no anti-obesity effects,no anti-obesity effects,did not show meaningful efficacy over the vehicle group; also recorded: no anti-obese effects; also recorded: no anti-obesity effects,,,prevention of body weight gain ([4]; SC injections): no anti-obese effects; also recorded: no anti-obesity effects
RAK,smaller than those in the non-treated control,positive effects on prevention of body weight gain,effective,positive effects on prevention of body weight gain; also recorded: effective,able to reduce lipid contents in mature Adipocytes; also recorded: effective in reducing lipid accumulation,approximately 20%,"activity by histological analysis of the fat pads ([5]; DIO mice): more active than GGR; also recorded: highest efficacy; average cell count per field ([5]; H&E-stained epididymal fat, 10× magnification, among GGR, RAK, AKD, PBS groups): highest average cell count per field; average adipocyte area per cell ([5]; H&E-stained epididymal fat, among GGR, RAK, AKD, PBS groups): lowest average adipocyte area per cell; anti-obesity efficacy (body weight) ([3]; oral administration): has anti-obesity efficacy in both models; anti-obesity efficacy (body weight) [4]: efficacious over GGR; also recorded: has anti-obesity efficacy in both models"
AKD,smaller than those in the non-treated control,,,,able to reduce lipid contents in mature Adipocytes; also recorded: effective in reducing lipid accumulation,approximately 20%,prevention of body weight gain ([4]; SC injections): best working peptide; also recorded: effective; anti-obesity efficacy (body weight) [4]: efficacious over GGR
GGR,smaller than those in the non-treated control,positive effects on prevention of body weight gain,effective,positive effects on prevention of body weight gain; also recorded: effective,able to reduce lipid contents in mature Adipocytes; also recorded: effective in reducing lipid accumulation,approximately 20%,

# Source: patent US20240238362A1, “ANTI-OBESITY PEPTIDES AND USES THEREOF” (Arizona Board of Regents on Behalf of the University of …, priority 2020, published 2024)
